The text below walks through data of patent publication US20040048279A1, “Method for detecting methylation states for a toxicological diagnostic” (priority 2000, published 2004).

One data set concerns Cyp1a1. As to conditions: mice exposed to the substance; Arch Biochem Biophys 2000;376(1):66-73; cited from earlier work.
The test system of the next data set is HT29-P208 cells. Put plainly: Methylation state of CpG positions by bisulfite treatment, multiplex PCR and oligonucleotide array hybridization in treated HT29-P208 cells. Particulars: for methylation state of selected CpG positions of the genes EGFR, ANT1 and CDC25A (CG signal / (CG+TG signal)): trichostatin 50 nM or milrinone 50 μM, FIG. 4; for methylation state of selected CpG positions of the genes EGFR, ANT1 and CDC25A (CG signal / (CG+TG signal)) / methylation state of selected CpGs of the genes TGF-a, EGFR, ANT1 and E-cadherin (CG signal / (CG+TG signal)): treated versus untreated; for methylation state of selected CpGs of the genes TGF-a, EGFR, ANT1 and E-cadherin (CG signal / (CG+TG signal)): FIG. 3; for differences in methylation of 64 gene fragments versus controls: treatment time 6 h (data not shown); for degree of methylation of various CpG positions of 64 gene fragments, in contrast to controls (HT29-P208 in medium): treatment time 24 h, 10 ng/ml TGF-b1 or 10 ng/ml IL-1b in medium, FIGS. 1 and 2, p<0.05. Format: cell-based. The protocol:
HT-29 P208 cells (5×10^4 cells/ml) were seeded in culture dishes (33×5 cm) and grown for 5 days in DMEM/Ham's F-12 medium, which was supplemented with 10% fetal calf serum at 37° C. and 5% CO2, up to 95% confluence (Campbell-Thompson, M. and Bhardwaj, B., Cancer Research 2001, 61, 632-640). The cells were then incubated for 24 h in medium not containing calf serum. After repeated change of medium, the cells were incubated in 3 parallel cultures for 6 h and 24 h, either with medium, medium supplemented with 10 ng/ml TGF-b1, medium supplemented with 10 ng/ml IL-1b, medium supplemented with trichostatin (50 nM) or medium supplemented with milrinone (50 μM). The cells freed of medium were treated with trypsin, centrifuged, and resuspended in 200 μl of PBS buffer (Fritsch and Maniatis eds., Molecular Cloning: A Laboratory Manual, 1989), and stored at −20° C. The chromosomal DNA was purified with a QIAamp Kit according to the manufacturer's instructions (Qiagen, Hilden).
The DNA samples (20 ng) were digested with the restriction enzyme Mss1. The digested DNA was chemically converted with hydrogen sulfite (bisulfite, disulfite) and a radical trap at elevated temperature (DE 10050942). In this way, after alkaline hydrolysis, all unmethylated cytosines are converted to uracil, which correspond in their base-pairing behavior to thymidine. In contrast, 5-methylcytosine is not modified under these conditions.
The chemically pretreated DNA was then amplified with the use of a heat-stable DNA polymerase in a polymerase chain reaction. The multiplex PCR reactions were conducted with a thermocycler (Eppendorf GmbH) with the use of 10 ng of bisulfite-treated DNA, each time with […] of primer oligonucleotides (mixture of up to 32 individual primer oligonucleotides; see Table 3), 800 μM dNTPs and 4.5 mM magnesium chloride. The cycler program was as follows: step 1, 14 min at 96° C.; step 2, 60 sec 96° C.; step 3, 45 sec 55° C.; step 4, 75 sec 72° C.; step 5, 10 min at 72° C.; steps 2 to 4 were repeated 39 times.
The DNA fragments of 64 different genes listed in Table 3 were amplified with 6 sets of multiplex PCR (mPCR) and with bisulfite-treated DNA as the template, as described above. The mPCR reactions (I, J, K, L, M, N) of the genomic, bisulfite-treated DNA were conducted with the combination of primer oligonucleotides as listed in Table 3. It is also possible, however, to use other primer oligonucleotides in the same way for the amplification of the genomic, bisulfite-treated DNA. The primer pairs listed in Table 1, however, are particularly preferred.
The amplificates produced in Example 2 were hybridized with 512 oligonucleotides, which were bound to a solid phase (Model, F. and Adorjian, P., Bioinformatics 2001, 17 Suppl. 1, 157-164). The solid phase loaded with oligonucleotides is named an oligonucleotide array below. The detectability of the hybridization product is based on primer oligonucleotides fluorescently labeled with Cy5, which were used for the amplification. A hybridization reaction of the amplified DNA with the oligonucleotide, for example, GTTTTTTTCGTTTTAGAG (Sequence ID 6), occurs only when a methylated cytosine is present at the said site of the bisulfite-treated DNA. Thus, the methylation state of the specific cytosine can be determined by means of the hybridization product. In order to verify the methylation state of said position, an oligonucleotide is found on the oligonucleotide array, which permits it to detect the unmethylated cytosine. This oligonucleotide is identical to the oligonucleotide which was previously used for the analysis of the methylated status of the sample, with the exception that the oligonucleotide bears a thymine base instead of a cytosine base at the position to be analyzed, e.g., GTTTTTTTTGTTTTAGAG (Sequence ID 7). Thus, a hybridization reaction occurs only if an unmethylated cytosine is present at the position to be analyzed. […]

Regarding `O=c1cc(-c2ccccc2)oc2ccc3ccccc3c12` [beta-naphthoflavone], in the data set with Cyp1a1, the “Cyp1a1 gene expression after exposure” value is listed as “induced”.

With `Cc1[nH]c(=O)c(C#N)cc1-c1ccncc1` [milrinone, reference compound], in the data set with HT29-P208 cells, the “methylation state of selected CpG positions of the genes EGFR, ANT1 and CDC25A (CG signal / (CG+TG signal))” value was “reduction in the methylation state”.

In the case of `CC(/C=C/C(=O)NO)=C\[C@@H](C)C(=O)c1ccc(N(C)C)cc1` [trichostatin, reference compound], the “methylation state of selected CpG positions of the genes EGFR, ANT1 and CDC25A (CG signal / (CG+TG signal))” value in the data set with HT29-P208 cells is recorded as “increase”. Regarding “IL-1b: IL-1b (interleukin), exogenous cytokine added to medium at 10 ng/ml”, in the data set on HT29-P208 cells, the “methylation state of selected CpGs of the genes TGF-a, EGFR, ANT1 and E-cadherin (CG signal / (CG+TG signal))” value was “no change or to an increase in the methylation state”; the “differences in methylation of 64 gene fragments versus controls” value is “no significant differences in methylation”; the “degree of methylation of various CpG positions of 64 gene fragments, in contrast to controls (HT29-P208 in medium)” value is recorded as “greater degree of methylation”.

As for “TGF-b1: TGF-b1 (transforming growth factor), exogenous cytokine added to medium at 10 ng/ml”, in the data set on HT29-P208 cells, the “methylation state of selected CpGs of the genes TGF-a, EGFR, ANT1 and E-cadherin (CG signal / (CG+TG signal))” value is “significant reduction of the methylation state”; the “differences in methylation of 64 gene fragments versus controls” value is reported as “no significant differences in methylation”; the “degree of methylation of various CpG positions of 64 gene fragments, in contrast to controls (HT29-P208 in medium)” value was “smaller degree of methylation”.
